The results in this text go back to PubChem BioAssay (NCI).

Values joined by “and” are separate entries in the source; they are usually repeats but may differ in a detail not shown here. Identical values can stand only once.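 These data come from cells grown in 96-well plates and exposed to compound for 48 hours at five concentrations. GI50: concentration for 50% inhibition of growth. TGI: total growth inhibition.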

Common to all, as to experiment: NCI-60 cell line screen, 48 h
The subject of assay [1] is UACC-257 melanoma.
Assay [2] concerns HL-60(TB) leukemia.
Assay [3] has as its system OVCAR-8 ovarian.
Assay [4] has as its system HCC-2998 colon.
For assay [5], the system named is SK-MEL-5 melanoma.
Assay [6] relates to SN12C renal.
For assay [7], the system named is SNB-75 CNS.
Assay [8] has as its system RPMI-8226 leukemia.
The test system of assay [9] is LOX IMVI melanoma.
Assay [10] relates to MOLT-4 leukemia.

`Nc1ccc(/C=C/C(=O)NCc2cc3cc(-c4ccc(C(=O)N5CCC(F)(F)CC5)cc4)cc(-c4ccc(F)cc4)c3o2)cn1`: the GI50 in assay [1] was above 100 µM; in [2], 5.61 µM; in assay [3], 0.0404 µM; in assay [4], 10.5 µM; in [5], 14.2 µM; in assay [6], 0.0589 µM. The GI50 in [7] is above 100 µM; in [8] it was 0.563 µM; in assay [9], above 77.5 µM; in assay [10], 3.46 µM. Further, the TGI in assay [1], in assay [2], in assay [3], in assay [4], in assay [5] and in assay [6] was above 100 µM throughout. Also, the TGI in assay [7], in [8], in assay [9] and in [10] was above 100 µM each time.
As for `Cc1nc(C(N)=S)sc1C(=O)/C=C/c1c(O)ccc2ccccc12`, the TGI in assay [1] was above 100 µM; in assay [2], 65.3 µM; in assay [3], above 100 µM; in assay [4] it was above 100 µM; in [5], above 100 µM; in assay [6], above 100 µM. The TGI in [7] was above 100 µM; in assay [8], above 93.5 µM; in assay [9], 73.6 µM; in assay [10], above 69 µM.
Regarding `COC(=O)C1(O)CC(=O)CCC1c1ccc(OC)cc1` (stereo not given), the TGI in assay [1], in assay [2], in assay [3], in [4], in [5] and in [6] was above 100 µM each time. For the same molecule, the TGI in [7], in assay [8], in [9] and in [10] was above 100 µM in each case.
For the molecule `c1ccc2[nH]c(-c3ccc(Nc4nc(N5CCCCC5)nc(N5CCOCC5)n4)cc3)nc2c1`, the GI50 is 2.42 µM in assay [2]; 3.24 µM in assay [3]; 3.74 µM in [4]; 1.78 µM in assay [5]; 5.4 µM in [6]; 2.1 µM in [7]. Also, the GI50 is 2.23 µM in [8], 1.75 µM in [9] and 2.73 µM in assay [10]. The TGI is 5.8 µM in [2]; 14.3 µM in assay [3]; above 100 µM in assay [4]; 3.3 µM in assay [5]; 53.2 µM in assay [6]; 16.9 µM in assay [7]. The TGI worked out at 6.58 µM in assay [8], 3.58 µM in assay [9] and 7.89 µM in assay [10].
Regarding `CCNC(=O)c1noc(-c2cc(C(C)C)c(O)cc2O)c1-c1ccc(CN2CCOCC2)cc1`, the GI50 is 0.0259 µM in [1]; 0.024 µM in assay [2]; 0.0423 µM in [3]; 0.0267 µM in assay [4]; 0.047 µM in [5]; 0.0707 µM in assay [6]. Besides, the GI50 in assay [7] is 4.51 µM; in assay [8], 0.0428 µM; in assay [9] it was 0.0159 µM; in [10], 0.0326 µM. Further, the TGI was 0.159 µM in [1]; 1.17 µM in [2]; 28.9 µM in [3]; 1.05 µM in assay [4]; 14.2 µM in assay [5]; above 100 µM in assay [6]. In addition, the TGI in assay [7] was 55.8 µM; in [8], 23.1 µM; in assay [9] it was 0.0765 µM; in assay [10], above 100 µM.
`CC(C)(C)c1cc(C=C(C#N)C#N)cc(C(C)(C)C)c1O`: the TGI in [1] is 0.898 µM and 3.27 µM; in assay [2], 2.48 µM; in assay [3] it was 23.6 µM and 48.1 µM; in assay [4], 18.4 µM; in assay [5] it was 3.07 µM; in [6], 4.6 µM. The TGI in [9] is 3.92 µM and 10.8 µM; in [10], 10.6 µM. Also, the GI50 in assay [3] was 0.355 µM; in [5], 0.298 µM; in assay [6] it was 0.513 µM; in [7], 0.194 µM; in assay [8] it was 0.101 µM and 0.0877 µM; in [9], 0.375 µM.
`COc1cnc2c(c1)C(=O)c1c-2n(CCCN2CCN(C)CC2)c(=O)c2cc([N+](=O)[O-])ccc12`: the GI50 in assay [1] is 2.46 µM; in assay [2], 0.168 µM; in [3] it was 1.19 µM; in [4], 14.6 µM; in assay [5], 1.31 µM; in assay [7], 1.55 µM. The GI50 was 0.226 µM in assay [8] and 0.18 µM in [9]. Moreover, the TGI worked out at 5.87 µM in assay [1]; 0.372 µM in assay [2]; 6.96 µM in assay [3]; 27.7 µM in assay [4]; 2.64 µM in [5]; 2.95 µM in [7]. Besides, the TGI in [8] amounted to 0.917 µM; in assay [9], 0.396 µM.
For `CCOC(=O)c1cc2c3c(c(O)c(OC)c2s1)N(C(=O)c1cc2c4c(c(O)c(OC)c2s1)N(C(C)=O)CC4)CC3`, the TGI in assay [1], in [2], in [3], in assay [4], in assay [5] and in [6] was above 100 µM throughout. For the same molecule, the TGI in assay [7] was 67.1 µM; in [8], above 100 µM; in assay [9], above 100 µM.
On to `O=C(O)[C@@H](Cc1ccc2ccccc2c1)NC(=O)n1c2ccccc2c2ccccc21`, for which the GI50 is 11.9 µM in assay [1]; 3.3 µM in [2]; 4.16 µM in assay [3]; 3.91 µM in [4]; 2.55 µM in assay [5]; 3.94 µM in [6]. Also, the GI50 was 3.83 µM in assay [8], 3.63 µM in assay [9] and 4.12 µM in assay [10]. Besides, the TGI in assay [1] is above 100 µM; in assay [2], 18.3 µM; in assay [3], above 100 µM; in assay [4] it was 19.1 µM; in [5], 7.27 µM; in [6], 17.7 µM. Further, the TGI in assay [8] was 31.7 µM; in assay [9], 20 µM; in assay [10], 20.7 µM.
